Test [1] concerns the target T1, recombinant human HDAC8 (Homo sapiens, UniProt Q9BY41).
T1 construct: made in house; host or cells: insect cells
T1 sequence (Q9BY41 1-377): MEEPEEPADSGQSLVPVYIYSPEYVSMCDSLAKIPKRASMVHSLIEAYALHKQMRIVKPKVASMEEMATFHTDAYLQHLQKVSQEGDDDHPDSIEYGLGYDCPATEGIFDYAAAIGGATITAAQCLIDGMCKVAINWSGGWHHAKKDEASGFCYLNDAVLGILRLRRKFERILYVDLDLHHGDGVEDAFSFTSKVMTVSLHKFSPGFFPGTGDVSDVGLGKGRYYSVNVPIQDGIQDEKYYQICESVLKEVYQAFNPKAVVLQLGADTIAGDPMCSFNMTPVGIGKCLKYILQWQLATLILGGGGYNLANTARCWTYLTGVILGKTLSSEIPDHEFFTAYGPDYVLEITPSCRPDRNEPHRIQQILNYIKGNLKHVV
In words: HDAC8 inhibition: recombinant HDAC8 fluorometric assay. The conditions noted are these: recombinant human HDAC8, substrate Ac-Arg-His-Lys-Lys(ε-acetyl)-AMC; read-out: HDAC8 IC50. Type of test: biochemical. Here is the method: HDAC8 Inhibition by Novel Compounds: Recombinant HDAC8 Fluorometric Assay.
A competitive inhibitory assay of HDAC8 was carried out by using recombinant HDAC8 and a commercial substrate Ac-Arg-His-Lys-Lys(ε-acetyl)-AMC.
Compounds were tested for their ability to inhibit histone deacetylase 8 using an in vitro deacetylation assay. The enzyme source for this assay was recombinant human HDAC8 protein expressed and purified from insect cells. […] The substrate consisted of a commercial product Ac-Arg-His-Lys-Lys(ε-acetyl)-AMC (substrate is available from Cayman Chemical). […] 1 μl of half-log diluted compounds were added into wells and incubated for 15 min at rt. After that, 8 μl of substrate solution was transferred to the wells and incubated for 30 min at rt. After deacetylation of the substrate by incubation with HDAC8 enzyme, subsequent exposure to a developing reagent produced a fluorophore that was directly proportional to the level of deacetylation. […] The fluorescence signal was measured by a FlexStation3 plate reader (excitation wave length 340-360 nm; emission wave length 440-465 nm). The HDAC8 IC50 was calculated after normalization and curve fitting using XLfit4.0 software. Inhibition %=[Mean(top)−signal(sample)]×100/[Mean(top)−Mean(bottom)].

The subject of test [2] is p21 promoter-luciferase construct. Briefly: p21 reporter gene induction (HeLa cells, p21 promoter-luciferase construct).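 On all read-outs here: transfected HeLa cells exposed to compound for 15 h, luciferase luminescence read from lysates, p21 promoter lacks p53 site, proxy for cellular HDAC1/2/3 inhibition.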 The following applies: for p21 RP3: relative gene level of p21 compared to MS275 at 3 μM; for p21 RP10: relative level of p21 compared to MS275 at 10 μM; for p21 RP30: relative level of p21 compared to MS275 at 30 μM. Background: In a reporter assay the amount or activity of a reporter protein is the signal.

For test [3], the target named is T2, HDAC6 (Homo sapiens, UniProt Q9UBN7).
T2 construct: endogenous in cells; host or cells: A549 cells
T2 sequence (Q9UBN7 1-1215): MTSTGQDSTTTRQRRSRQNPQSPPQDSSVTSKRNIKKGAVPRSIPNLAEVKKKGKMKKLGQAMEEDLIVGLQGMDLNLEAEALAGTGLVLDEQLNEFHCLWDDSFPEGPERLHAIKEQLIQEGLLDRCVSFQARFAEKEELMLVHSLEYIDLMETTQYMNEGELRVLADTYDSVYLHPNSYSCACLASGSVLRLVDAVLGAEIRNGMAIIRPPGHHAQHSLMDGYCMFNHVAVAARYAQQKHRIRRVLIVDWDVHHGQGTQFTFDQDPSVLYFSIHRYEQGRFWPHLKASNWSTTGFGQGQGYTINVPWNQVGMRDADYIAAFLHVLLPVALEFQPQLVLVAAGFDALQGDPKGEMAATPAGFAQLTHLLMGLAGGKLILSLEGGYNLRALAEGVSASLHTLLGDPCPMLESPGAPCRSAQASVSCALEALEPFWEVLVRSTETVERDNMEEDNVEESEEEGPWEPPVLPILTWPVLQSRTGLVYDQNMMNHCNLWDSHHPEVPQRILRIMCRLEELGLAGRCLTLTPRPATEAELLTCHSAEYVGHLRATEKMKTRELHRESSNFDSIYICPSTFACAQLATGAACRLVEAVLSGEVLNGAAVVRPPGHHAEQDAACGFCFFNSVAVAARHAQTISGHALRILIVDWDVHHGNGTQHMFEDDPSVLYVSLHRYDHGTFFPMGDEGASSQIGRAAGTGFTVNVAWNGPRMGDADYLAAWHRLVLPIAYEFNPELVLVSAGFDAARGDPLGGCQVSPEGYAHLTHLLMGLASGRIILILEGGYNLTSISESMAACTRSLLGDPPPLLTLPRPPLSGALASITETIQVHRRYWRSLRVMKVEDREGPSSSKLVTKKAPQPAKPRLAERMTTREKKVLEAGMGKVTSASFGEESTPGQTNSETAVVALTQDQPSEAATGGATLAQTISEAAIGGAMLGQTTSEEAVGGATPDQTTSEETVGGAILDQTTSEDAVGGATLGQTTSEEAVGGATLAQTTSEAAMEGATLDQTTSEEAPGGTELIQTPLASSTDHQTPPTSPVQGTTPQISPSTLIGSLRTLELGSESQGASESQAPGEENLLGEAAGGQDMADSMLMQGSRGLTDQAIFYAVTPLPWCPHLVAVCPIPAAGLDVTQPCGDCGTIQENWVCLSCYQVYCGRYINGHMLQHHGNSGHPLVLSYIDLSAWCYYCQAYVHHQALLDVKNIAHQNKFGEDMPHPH
In words: Tubulin acetylation cytoblot assay (A549 cells). Type of test: cell-based. The following applies: 17-18 h incubation, tubulin acetylation as marker of HDAC6 inhibition, read-out: Tub-Ac EC50. Here is the method: Tubulin Acetylation Induction by Novel Compounds: Tubulin Acetylation Cytoblot Assay.
Tubulin acetylation is a PD marker for HDAC6 inhibition. The extent of tubulin acetylation represents the inhibitory effect on HDAC6.
Novel compounds were tested for their ability to inhibit HDAC6 using a cell-based deacetylation assay. Tubulin acetylation was detected by the anti-acetylated tubulin antibody (Sigma) and horse radish peroxidase (HRP) conjugated secondary antibody (KangChen Bio. Tech.). […] 20 μl of diluted compound solution was transferred to the cell culture plate and incubated for 17-18 h. After medium removal and fixation by formaldehyde (3.7% paraformaldehyde in TBS), the cells in the plates were treated with 180 μl of −20° C. MeOH and incubated for 5 min at rt. The cell lysis was incubated with 75 μl of primary anti-acetylated tubulin antibody and secondary HRP conjugated antibody solution (1:750 anti-acetylated tubulin, 1:750 HRP conjugated anti-mouse IgG in antibody dilution buffer not containing sodium azide) for 4 h at 4° C. By adding the HRP substrate, enhanced chemiluminescence (ECL) reagent (GE Healthcare) generated luminescence corresponding to the level of tubulin acetylation. So that 75 μl of ECL was added into the wells and the luminescence from each well was immediately quantified by the plate reader. Based on the luminescence reading, the Tub-Ac EC50s against HDAC6 of the tested compounds were calculated by plotting the curve with XLfit4.0 software. Inhibition %=[signal(sample)−Mean(bottom)]×100/[Mean(top)−Mean(bottom)]

The values that follow come from patent publication US8404738B2 (Hoffmann-La Roche Inc., priority 2011, dated 2013).

For orientation: IC50 means the concentration needed to halve the response being measured. Take `O=C(NO)c1ccc(NC2CCN(c3ccc(C(F)(F)F)cc3)C2=O)cc1` (stereo not shown) [Example 12, N-Hydroxy-4-[2-oxo-1-(4-trifluoromethyl-phenyl)-pyrrolidin-3-ylamino]-benzamide]: the IC50 in test [1] was determined as 0.99 µM. In test [2], the “p21 RP3” value is reported as 0.01, the “p21 RP10” value stood at 0.10 and the “p21 RP30” value is 0.14.
As a reminder, the EC50 is the concentration needed to bring the measured effect to its halfway point. `CCCCc1ccc(N2CCC(Nc3ccc(C(=O)NO)cc3)C2=O)cc1` (stereo not shown) [Example 15, 4-[1-(4-Butyl-phenyl)-2-oxo-pyrrolidin-3-ylamino]-N-hydroxy-benzamide]: in test [3], the EC50 amounted to 4.9 µM. Besides, in test [2], the “p21 RP3” value is given as 0.09, the “p21 RP10” value was found to be 0.06 and the “p21 RP30” value amounted to 0.04.
For `O=C(NO)c1ccc(NC2CCN(c3ccc(Cl)cc3Cl)C2=O)cc1` (stereo not shown) [Example 23, 4-[1-(2,4-Dichloro-phenyl)-2-oxo-pyrrolidin-3-ylamino]-N-hydroxy-benzamide], the IC50 in test [1] came out at 1.41 µM. In test [2], the “p21 RP3” value worked out at 0.10, the “p21 RP10” value is on record as 0.04 and the “p21 RP30” value was 0.03.
`O=C(NO)c1ccc(NC2CCN(CCc3ccccc3)C2=O)cc1` (stereo not shown) [Example 43, N-Hydroxy-4-(2-oxo-1-phenethyl-pyrrolidin-3-ylamino)-benzamide]: in test [1], the IC50 was 0.39 µM. Also, in test [2], the “p21 RP3” value is listed as −0.02, the “p21 RP10” value came out at 0.22 and the “p21 RP30” value is 0.62.
The like results for `COc1ccc(CN2CCC(Nc3ccc(C(=O)NO)cc3)C2=O)cc1` (stereo not shown) [Example 46, N-Hydroxy-4-[1-(4-methoxy-benzyl)-2-oxo-pyrrolidin-3-ylamino]-benzamide] were, in that order, 0.39 µM, 0.07, 0.26 and 0.70.
Take `O=C(NO)c1ccc(NC2CCN(C3(c4ccccc4)CCC3)C2=O)cc1` (stereo not shown) [Example 54, N-Hydroxy-4-[2-oxo-1-(1-phenyl-cyclobutyl)-pyrrolidin-3-ylamino]-benzamide]: the IC50 in test [1] was 0.31 µM. In test [2], the “p21 RP3” value is 0.28, the “p21 RP10” value amounted to 0.46 and the “p21 RP30” value is recorded as 0.79.
Take `CCC1(Nc2ccc(C(=O)NO)cc2)CCN(C(C)(C)c2ccccc2)C1=O` (stereo not shown) [Example 65, 4-[3-Ethyl-1-(1-methyl-1-phenyl-ethyl)-2-oxo-pyrrolidin-3-ylamino]-N-hydroxy-benzamide]: in test [1], the IC50 came to 0.56 µM. In addition, in test [2], the “p21 RP3” value is reported as 0.00, the “p21 RP10” value is 0.00 and the “p21 RP30” value was 0.00.
`O=C(NO)c1ccc(NC2CCN(c3ccc(Cl)c(Cl)c3)C2=O)cc1F` (stereo not shown) [Example 68, 4-[1-(3,4-Dichloro-phenyl)-2-oxo-pyrrolidin-3-ylamino]-2-fluoro-N-hydroxy-benzamide]: the EC50 in test [3] amounted to 6.67 µM. In addition, in test [2], the “p21 RP3” value is given as −0.05, the “p21 RP10” value amounted to 0.02 and the “p21 RP30” value was found to be 0.01.
For `CC(C)(c1ccccc1)N1CC(Nc2ccc(C(=O)NO)cc2)CC1=O` (stereo not shown) [Example 76, N-Hydroxy-4-[1-(1-methyl-1-phenyl-ethyl)-5-oxo-pyrrolidin-3-ylamino]-benzamide], the IC50 in test [1] was 1.88 µM. The EC50 in test [3] stood at 3.02 µM.
`O=C(NO)c1ccc(NC2CCN(S(=O)(=O)c3ccccc3)C2)cc1` (stereo not shown) [Example 84, 4-(1-Benzenesulfonyl-pyrrolidin-3-ylamino)-N-hydroxy-benzamide]: the IC50 in test [1] came out at 2.77 µM. In test [2], the “p21 RP3” value was 0.13, the “p21 RP10” value turned out to be 0.02 and the “p21 RP30” value came out at 0.01.
`O=C(NO)c1ccc(NC2CCN(S(=O)(=O)c3ccc(Cl)cc3)C2)cc1` (stereo not shown) [Example 86, 4-[1-(4-Chloro-benzenesulfonyl)-pyrrolidin-3-ylamino]-N-hydroxy-benzamide]: the IC50 in test [1] was found to be 1.54 µM. In addition, in test [2], the “p21 RP3” value is 0.04, the “p21 RP10” value was found to be 0.01 and the “p21 RP30” value stood at 0.01.
As to `O=C(NO)c1ccc(NC2CCN(S(=O)(=O)c3ccc(-c4ccccc4)cc3)C2)cc1` (stereo not shown) [Example 87, 4-[1-(Biphenyl-4-sulfonyl)-pyrrolidin-3-ylamino]-N-hydroxy-benzamide], in test [1], the IC50 came to 2.01 µM. In test [2], the “p21 RP3” value is on record as 0.20, the “p21 RP10” value is recorded as 0.00 and the “p21 RP30” value was −0.03.
For `O=C(NO)c1ccc(NC2CCN(C(=O)c3ccccc3)C2)cc1` (stereo not shown) [Example 88, 4-(1-Benzoyl-pyrrolidin-3-ylamino)-N-hydroxy-benzamide], the IC50 in test [1] came out at 1.35 µM. Further, in test [2], the “p21 RP3” value is given as 0.35, the “p21 RP10” value worked out at 0.06 and the “p21 RP30” value came to 0.03.
`O=C(NO)c1ccc(NC2CCN(C(=O)c3ccc(F)cc3)C2)cc1` (stereo not shown) [Example 89, 4-[1-(4-Fluoro-benzoyl)-pyrrolidin-3-ylamino]-N-hydroxy-benzamide]: the IC50 in test [1] came out at 0.9 µM. In test [2], the “p21 RP3” value is reported as 0.38, the “p21 RP10” value is 0.10 and the “p21 RP30” value was found to be 0.06.
With `COc1ccc(C(=O)N2CCC(Nc3ccc(C(=O)NO)cc3)C2)cc1` (stereo not shown) [Example 90, N-Hydroxy-4-[1-(4-methoxy-benzoyl)-pyrrolidin-3-ylamino]-benzamide], the IC50 in test [1] came to 0.92 µM. Also, in test [2], the “p21 RP3” value stood at 0.38, the “p21 RP10” value was 0.09 and the “p21 RP30” value was 0.05.
